Several values for one entry are separate records, joined by “and”; a condition that tells them apart may be missing. Equal values may be shown once. Read-outs that look alike come from different tables or passages of the source.
Legend:
[1] = system: T. cruzi epimastigotes (strain Y); test: Growth of axenic cultures of T. cruzi epimastigotes
human dermal fibroblasts = test: Human cell toxicity, resazurin viability; type: cell-based
Method in brief: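 Primary human dermal fibroblasts, 2400 cells/well, exposed in duplicate to inhibitors at final 0.001-0.1 mM in 1% DMSO (1% DMSO control) for 48 h at 37 °C. Resazurin then added and viability read by fluorescence (544/590 nm) after further 24 h.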

[2] = system: T. cruzi (Ca-I/72) in C2C12 murine cardiomyoblasts; test: T. cruzi-infected murine cardiomyoblasts (C2C12); type: cell-based, Trypanosoma cruzi; details: for EC50: read-out: EC50 T. cruzi-infected cardiomyoblasts
Method in brief: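 Infected-host-cell imaging assay: inhibitor, 3-fold dilutions topping at 10 μM, was added to C2C12 murine cardiomyoblasts infected with 10^3 or 10^4 Ca-I/72 parasites for 2 days at 37° C. DAPI-stained fixed wells were imaged to count parasites and host cells separately, yielding antiparasitic EC50 and cytotoxic CC50.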

human cathepsin L = human cathepsin L (Homo sapiens (Human), UniProt P07711); test: Human cathepsin L inhibition, Z-FR-AMC assay; type: biochemical; details: for Ki: pH 5.5, 25° C.
Method in brief: (§1)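 Recombinant human enzymes were assayed at 25°C in sodium acetate pH 5.5 with 1 mM CHAPS, 1 mM EDTA, 5 mM DTT and 10% DMSO final, using the fluorogenic substrate Z-FR-AMC. AMC release (ex 360/em 460 nm) was followed over 30–60 min and converted to rates (μM/s) via an AMC standard curve.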

human cathepsin B = human cathepsin B (Homo sapiens (Human), UniProt P07858); test: Human cathepsin B inhibition, Z-FR-AMC assay; type: biochemical; details: pH 5.5, 25° C.
Method in brief: as §1

human cathepsin S = human cathepsin S (Homo sapiens (Human), UniProt P25774); test: Human cathepsin S inhibition; type: biochemical; details: pH 5.5, 25° C., 10% DMSO
Experimental: Cruzain inhibitors were added at seven concentrations and one fixed concentration of Cbz-Phe-Arg-AMC, and time courses of AMC formation were analyzed as with cruzain.

[3] = Thiolation of inhibitors with glutathione, LCMS; type: physicochemical; details: for Rate of Thiolation, k: 1 mM glutathione, 0.5 mM compound, Tris pH 8.0, 10% DMSO, room temperature
Experimental: Samples were analyzed by HPLC-MS (as described above) by injecting 0.01 mL aliquots onto a Luna […] C18(2) 100 Å, 4.6 mm, 50 mm column (Phenomenex) using the HPLC method described in the chemistry section at 0-6 h time points. […] Integration of the chromatographic peaks of the inhibitors and their GSH adducts at each time point was used to determine the rate of GSH adduct formation.

[4] = system: T. b. brucei bloodstream forms; test: Growth of axenic cultures of T. b. brucei bloodstream forms (BSFs)
[5] = system: T. b. brucei procyclic forms; test: Growth of axenic cultures of T. b. brucei procyclic forms (PCFs); type: cell-based, Trypanosoma brucei brucei; details: axenic culture; read-out: EC50 T. b. brucei PCF
[6] = Trypanosoma cruzi, C2C12, C2C12 murine cardiomyoblasts
[7] = 10% DMSO, read-out: Ki* Human Cathepsin L
[8] = 10% DMSO, read-out: Ki* Human Cathepsin B
[9] = read-out: T. cruzi axenic culture EC50, epimastigotes
[10] = read-out: EC50 T. b. brucei BSF, axenic culture

human cathepsin L, sequence (P07711 114-333): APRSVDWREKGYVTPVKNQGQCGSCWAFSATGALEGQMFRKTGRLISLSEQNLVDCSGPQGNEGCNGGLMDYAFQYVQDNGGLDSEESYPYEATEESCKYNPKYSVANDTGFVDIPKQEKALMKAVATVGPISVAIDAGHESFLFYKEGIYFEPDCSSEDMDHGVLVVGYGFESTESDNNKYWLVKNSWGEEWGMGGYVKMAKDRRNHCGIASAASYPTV
human cathepsin S, sequence (P25774 115-331): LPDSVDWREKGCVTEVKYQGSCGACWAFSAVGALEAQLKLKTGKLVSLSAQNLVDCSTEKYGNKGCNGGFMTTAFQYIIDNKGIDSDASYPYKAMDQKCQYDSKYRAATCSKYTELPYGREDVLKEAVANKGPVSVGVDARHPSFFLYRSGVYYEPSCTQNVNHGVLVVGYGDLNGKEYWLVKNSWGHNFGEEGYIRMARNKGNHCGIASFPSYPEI

| SMILES | EC50 ([1]; Trypanosoma cruzi, read-out: T. cruzi axenic culture EC50, epimastigotes) [µM] | T. cruzi axenic culture EC50 ([1]; epimastigotes) | CC50 (human dermal fibroblasts; human dermal fibroblasts, read-out: Human Cell Cytotoxicity CC50) [µM] | EC50 ([2]; C2C12 murine cardiomyoblasts) | EC50 [2, 6] [µM] | Ki (human cathepsin L; [7]) [µM] | Ki (human cathepsin B; [8]) [µM] | Ki (human cathepsin S) [µM] | Rate of Thiolation, k [3] | CC50 (human dermal fibroblasts; human, 48 h) [µM] | Selectivity Index CC50/EC50 ([2]; CC50 human dermal fibroblasts / EC50 infected cardiomyoblasts) | EC50 ([4]; Trypanosoma brucei, read-out: EC50 T. b. brucei BSF, axenic culture) [µM] | apparent rate of GSH addition relative to K11777 [3] [fold] | EC50 [1, 9] | EC50 [5] | Ki (human cathepsin L; read-out: Ki* hCatL) [µM] | EC50 [4, 10] [µM] | Ki (human cathepsin B; read-out: Ki* hCatB) [µM] | CC50 (human dermal fibroblasts) [µM] | selectivity for cruzain vs human cathepsin L and S (human cathepsin L) |
| --- | --- | --- | --- | --- | --- | --- | --- | --- | --- | --- | --- | --- | --- | --- | --- | --- | --- | --- | --- | --- |
| O=C(N[C@@H](Cc1ccccc1)C(=O)N[C@H](/C=C/c1ccccn1)Cc1ccccc1)OCc1ccccc1 [Compound 11, Benzyl ((S)-1-Oxo-3-phenyl-1-(((S,E)-1-phenyl-4-(pyridin-2-yl)-but-3-en-2-yl)amino)propan-2-yl)carbamate] | > 20 | poorly effective | > 100 | 5 to 10 µM | 5 to 8 | 4.3 ± 0.5 | 28 ± 4 | 1.8 ± 0.3 | Negligible |  |  |  |  |  |  |  |  |  |  |  |
| C[n+]1ccccc1/C=C/[C@H](Cc1ccccc1)NC(=O)[C@H](Cc1ccccc1)NC(=O)OCc1ccccc1.[I-] [Compound 12, 2-((S,E)-3-((S)-2-(((Benzyloxy)carbonyl)amino)-3-phenylpropanamido)-4-phenylbut-1-en-1-yl)-1-methylpyridin-1-ium Iodide] |  |  |  | 9.9 ± 0.5 µM | 5 to 8 | 0.7 ± 0.04 | 19 ± 4 | 0.87 ± 0.07 | 0.617 ± 0.033 M⁻¹ s⁻¹ | > 100 | >10 | 6.6 ± 0.6 | 8 |  |  |  |  |  |  |  |
| CN1CCN(C(=O)NC(Cc2ccccc2)C(=O)NC2Cc3ccccc3OC2O)CC1 (stereo not drawn) [Compound 36] |  |  |  | 29 µM and ~30 µM |  |  |  |  |  |  |  |  |  | 0.54 µM | 4 µM | 0.02 ± 0.0009 | 0.6 | 1.27 ± 0.07 |  |  |
| C[n+]1ccccc1/C=C/[C@H](CCc1ccccc1)NC(=O)[C@H](Cc1ccccc1)NC(=O)OCc1ccccc1 [Compound 15, 2-((S,E)-3-((S)-2-(((Benzyloxy)carbonyl)amino)-3-phenylpropanamido)-5-phenylpent-1-en-1-yl)-1-methylpyridin-1-ium] |  |  |  | 5.4 ± 0.9 µM |  | 0.88 ± 0.06 | 37 ± 6 | 0.32 ± 0.04 | 0.9 ± 0.067 M⁻¹ s⁻¹ |  |  |  | 8 | 2 to 20 µM and 2.1 µM | 5 to 15 µM and 5.9 µM |  | 2.8 ± 0.1 |  | > 100 |  |
| O=C(N[C@@H](Cc1ccccc1)C(=O)N[C@H]1Cc2ccccc2OC1O)OCc1ccccc1 (stereo partly drawn) [Compound 30] |  |  |  | 5 to 8 µM and 3 µM and 3 to 5.7 µM |  |  |  |  |  |  |  |  |  | 2 to 20 µM | 17 µM | 0.028 ± 0.0009 | 6.8 ± 1.1 | 4.5 ± 0.1 |  | more than 10 fold |

Source: patent US20240150396A1 (The Texas A&M University System, priority 2021, published 2024)
